From the NIST ThermoML archive (doi:10.1016/j.jct.2012.04.026)
Numbers after ± are expanded uncertainties.

Key:
[1] = refractive index (Na D-line) (dimensionless); wn = mass fraction of the nth substance listed; conditions: 313.15 K, Liquid, Standard Abbe refractometry
[2] = wn = mass fraction of the nth substance listed; conditions: 313.15 K, Liquid, Vibrating tube method
[3] = Liquid, Vibrating tube method
[4] = refractive index (Na D-line) (dimensionless); conditions: Liquid, Standard Abbe refractometry

CCCC[n+]1ccn(C)c1.O=S(=O)([N-]S(=O)(=O)C(F)(F)F)C(F)(F)F + CCO
Conditions	mass density, 101 kPa [kg/m3]	mass density, 101.3 kPa [kg/m3]	refractive index, 101 kPa	refractive index, 101.3 kPa	refractive index, 10234 kPa
[1], w2 = 0.008	–	–	1.42305 ± 0.0007	1.42305 ± 0.0007	1.42305 ± 0.0007
[1], w2 = 0.015	–	–	1.42222 ± 0.0007	1.42222 ± 0.0007	1.42222 ± 0.0007
[1], w2 = 0.032	–	–	1.41981 ± 0.0007	1.41981 ± 0.0007	1.41981 ± 0.0007
[1], w2 = 0.084	–	–	1.41301 ± 0.0007	1.41301 ± 0.0007	1.41301 ± 0.0007
[1], w2 = 0.156	–	–	1.40517 ± 0.0007	1.40517 ± 0.0007	1.40517 ± 0.0007
[1], w2 = 0.202	–	–	1.40056 ± 0.0007	1.40056 ± 0.0007	1.40056 ± 0.0007
[1], w2 = 0.385	–	–	1.38611 ± 0.0007	1.38611 ± 0.0007	1.38611 ± 0.0007
[1], w2 = 0.48	–	–	1.37983 ± 0.00071	1.37983 ± 0.0007	1.37983 ± 0.00071
[2], w2 = 0.008	1411.58 ± 0.59	1411.58 ± 0.59	–	–	–
[2], w2 = 0.015	1403.51 ± 0.58	1403.51 ± 0.58	–	–	–
[2], w2 = 0.032	1384.48 ± 0.57	1384.48 ± 0.57	–	–	–
[2], w2 = 0.084	1329.16 ± 0.52	1329.16 ± 0.51	–	–	–
[2], w2 = 0.156	1259.12 ± 0.47	1259.12 ± 0.45	–	–	–
[2], w2 = 0.202	1218.21 ± 0.44	1218.21 ± 0.42	–	–	–
[2], w2 = 0.385	1077.75 ± 0.41	1077.75 ± 0.3	–	–	–
[2], w2 = 0.48	1016.97 ± 0.4	1016.97 ± 0.25	–	–	–

CCCC[n+]1ccn(C)c1.O=S(=O)([N-]S(=O)(=O)C(F)(F)F)C(F)(F)F
Conditions	mass density, [3] [kg/m3]	refractive index, [4]
298.15 K, 101.33 kPa	1436.1 ± 0.62	1.42672 ± 0.0007
313.15 K, 101 kPa	1420.7 ± 0.6	1.42437 ± 0.0007
313.15 K, 101.3 kPa	1420.7 ± 0.6	–
313.15 K, 101.33 kPa	–	1.42437 ± 0.0007

CCCCCCC [heptane]
298.15 K, 101.33 kPa
Conditions	mass density [kg/m3]	refractive index
[3]	679.57 ± 0.25	–
[4]	–	1.38529 ± 0.0007

CCCCCC[n+]1ccn(C)c1.O=S(=O)([N-]S(=O)(=O)C(F)(F)F)C(F)(F)F + CCO
Conditions	mass density, 101 kPa [kg/m3]	mass density, 101.3 kPa [kg/m3]	refractive index, 101 kPa	refractive index, 101.3 kPa	refractive index, 10234 kPa
[1], w2 = 0.099	–	–	1.41392 ± 0.0007	1.41392 ± 0.0007	1.41392 ± 0.0007
[1], w2 = 0.231	–	–	1.40128 ± 0.0007	1.40128 ± 0.0007	1.40128 ± 0.0007
[1], w2 = 0.328	–	–	1.39325 ± 0.0007	1.39325 ± 0.0007	1.39325 ± 0.0007
[1], w2 = 0.529	–	–	1.37912 ± 0.0007	1.37912 ± 0.0007	1.37912 ± 0.0007
[1], w2 = 0.646	–	–	1.37165 ± 0.0007	1.37165 ± 0.0007	1.37165 ± 0.0007
[1], w2 = 0.74	–	–	1.36626 ± 0.0007	1.36626 ± 0.0007	1.36626 ± 0.0007
[1], w2 = 0.901	–	–	1.35782 ± 0.0007	1.35782 ± 0.0007	1.35782 ± 0.0007
[2], w2 = 0.099	1270.96 ± 0.47	1270.96 ± 0.46	–	–	–
[2], w2 = 0.231	1161.07 ± 0.41	1161.07 ± 0.37	–	–	–
[2], w2 = 0.328	1092.32 ± 0.37	1092.32 ± 0.31	–	–	–
[2], w2 = 0.529	973.37 ± 0.33	973.37 ± 0.24	–	–	–
[2], w2 = 0.646	914.93 ± 0.29	914.93 ± 0.24	–	–	–
[2], w2 = 0.74	872.96 ± 0.26	872.96 ± 0.24	–	–	–
[2], w2 = 0.901	808.24 ± 0.24	808.24 ± 0.24	–	–	–

CCCCCC[n+]1ccn(C)c1.O=S(=O)([N-]S(=O)(=O)C(F)(F)F)C(F)(F)F
Conditions	mass density, [3] [kg/m3]	refractive index, [4]
298.15 K, 101.33 kPa	1371.99 ± 0.56	1.43016 ± 0.0007
313.15 K, 101 kPa	1356.95 ± 0.54	1.42542 ± 0.0007
313.15 K, 101.3 kPa	1356.95 ± 0.54	–
313.15 K, 101.33 kPa	–	1.42542 ± 0.0007

CCn1cc[n+](C)c1.O=S(=O)([N-]S(=O)(=O)C(F)(F)F)C(F)(F)F + CCO
Conditions	mass density, 101 kPa [kg/m3]	mass density, 101.3 kPa [kg/m3]	refractive index, 101 kPa	refractive index, 101.3 kPa	refractive index, 10234 kPa
[1], w2 = 0.014	–	–	1.41547 ± 0.0007	1.41547 ± 0.0007	1.41547 ± 0.0007
[1], w2 = 0.034	–	–	1.41333 ± 0.0007	1.41333 ± 0.0007	1.41333 ± 0.0007
[1], w2 = 0.072	–	–	1.40945 ± 0.0007	1.40945 ± 0.0007	1.40945 ± 0.0007
[1], w2 = 0.126	–	–	1.40425 ± 0.0007	1.40425 ± 0.0007	1.40425 ± 0.0007
[1], w2 = 0.278	–	–	1.3915 ± 0.0007	1.3915 ± 0.0007	1.3915 ± 0.0007
[1], w2 = 0.324	–	–	1.38812 ± 0.0007	1.38812 ± 0.0007	1.38812 ± 0.0007
[1], w2 = 0.635	–	–	1.36939 ± 0.0007	1.36939 ± 0.0007	1.36939 ± 0.0007
[2], w2 = 0.014	1481.64 ± 0.66	1481.64 ± 0.66	–	–	–
[2], w2 = 0.034	1456.07 ± 0.63	1456.07 ± 0.63	–	–	–
[2], w2 = 0.072	1409.69 ± 0.6	1409.69 ± 0.59	–	–	–
[2], w2 = 0.126	1347.49 ± 0.55	1347.49 ± 0.53	–	–	–
[2], w2 = 0.278	1195.34 ± 0.46	1195.34 ± 0.4	–	–	–
[2], w2 = 0.324	1155.44 ± 0.46	1155.44 ± 0.36	–	–	–
[2], w2 = 0.635	943.07 ± 0.3	943.07 ± 0.24	–	–	–

CCCn1cc[n+](C)c1.O=S(=O)([N-]S(=O)(=O)C(F)(F)F)C(F)(F)F
Conditions	mass density, [3] [kg/m3]	refractive index, [4]
298.15 K, 101.33 kPa	1473.97 ± 0.65	1.42525 ± 0.0007
313.15 K, 101 kPa	1458.33 ± 0.64	1.42016 ± 0.0007
313.15 K, 101.3 kPa	1458.33 ± 0.64	–
313.15 K, 101.33 kPa	–	1.42016 ± 0.0007

CCO [ethanol]
Conditions	mass density, [3] [kg/m3]	refractive index, [4]
298.15 K, 101.33 kPa	785.2 ± 0.24	–
313.15 K, 101 kPa	773.03 ± 0.24	1.35353 ± 0.0007
313.15 K, 101.3 kPa	773.03 ± 0.24	–
313.15 K, 101.33 kPa	–	1.35353 ± 0.0007

CCn1cc[n+](C)c1.O=S(=O)([N-]S(=O)(=O)C(F)(F)F)C(F)(F)F
Conditions	mass density, [3] [kg/m3]	refractive index, [4]
298.15 K, 101.33 kPa	1518.74 ± 0.7	1.42307 ± 0.0007
313.15 K, 101 kPa	1502.2 ± 0.68	1.41695 ± 0.0007
313.15 K, 101.3 kPa	1502.2 ± 0.68	–
313.15 K, 101.33 kPa	–	1.41695 ± 0.0007

CCCn1cc[n+](C)c1.O=S(=O)([N-]S(=O)(=O)C(F)(F)F)C(F)(F)F + CCO
Conditions	mass density, 101 kPa [kg/m3]	mass density, 101.3 kPa [kg/m3]	refractive index, 101 kPa	refractive index, 101.3 kPa	refractive index, 10234 kPa
[1], w2 = 0.019	–	–	1.41801 ± 0.0007	1.41801 ± 0.0007	1.41801 ± 0.0007
[1], w2 = 0.035	–	–	1.4161 ± 0.0007	1.4161 ± 0.0007	1.4161 ± 0.0007
[1], w2 = 0.082	–	–	1.41105 ± 0.0007	1.41105 ± 0.0007	1.41105 ± 0.0007
[1], w2 = 0.133	–	–	1.40604 ± 0.0007	1.40604 ± 0.0007	1.40604 ± 0.0007
[1], w2 = 0.186	–	–	1.40101 ± 0.0007	1.40101 ± 0.0007	1.40101 ± 0.0007
[1], w2 = 0.267	–	–	1.39403 ± 0.0007	1.39403 ± 0.0007	1.39403 ± 0.0007
[1], w2 = 0.55	–	–	1.37499 ± 0.0007	1.37499 ± 0.0007	1.37499 ± 0.0007
[2], w2 = 0.019	1433.96 ± 0.61	1433.96 ± 0.61	–	–	–
[2], w2 = 0.035	1414.83 ± 0.6	1414.83 ± 0.59	–	–	–
[2], w2 = 0.082	1362.5 ± 0.55	1362.5 ± 0.55	–	–	–
[2], w2 = 0.133	1309.15 ± 0.51	1309.15 ± 0.5	–	–	–
[2], w2 = 0.186	1256.95 ± 0.48	1256.95 ± 0.45	–	–	–
[2], w2 = 0.267	1183.97 ± 0.43	1183.97 ± 0.39	–	–	–
[2], w2 = 0.55	983.52 ± 0.4	983.52 ± 0.24	–	–	–
